According to ChEMBL document CHEMBL3745599, “The anti-tumor activity and mechanism of alkaloids from Aconitum szechenyianum Gay” (Bioorg Med Chem Lett, 2016):
Activity calls are given as the source filed them. No cut-off for these calls is given here.

Columns and labels:
HepG2 = assay: Antiproliferative activity against human HepG2 cells assessed as cell viability at 100 to 1600 ug/ml after 44 hrs by MTT assay; format: functional, cell-based
A549 [1] = assay: Antiproliferative activity against human A549 cells assessed as cell viability at 100 to 1600 ug/ml after 44 hrs by MTT assay; format: functional, cell-based
HeLa = assay: Antiproliferative activity against human HeLa cells assessed as cell viability at 100 to 1600 ug/ml after 44 hrs by MTT assay; format: functional, cell-based
[2] = Cytotoxicity against HEK293A cells assessed as cell viability at 100 to 800 ug/ml after 44 hrs by MTT assay; format: cell-based; settings: human, hek293-a
[3] = Cytotoxicity against HEK293A cells assessed as cell viability at 1600 ug/ml after 44 hrs by MTT assay; format: cell-based; settings: human, hek293-a
A549 [4] = assay: Induction of apoptosis in human A549 cells assessed as change from fusiform shape to round shape cell at 100 to 800 ug/ml after 24 hrs by inverted phase contrast microscopic analysis; format: functional, cell-based
A549 [5] = assay: Induction of apoptosis in human A549 cells assessed as cell shrinkage at 100 to 800 ug/ml after 24 hrs by inverted phase contrast microscopic analysis; format: functional, cell-based
A549 [6] = assay: Induction of apoptosis in human A549 cells assessed as appearance of loosely arranged cells at 100 to 800 ug/ml after 24 hrs by inverted phase contrast microscopic analysis; format: functional, cell-based
A549 [7] = assay: Induction of apoptosis in human A549 cells assessed as change in cytoplasmic vacuole at 100 to 800 ug/ml after 24 hrs by inverted phase contrast microscopic analysis; format: functional, cell-based
A549 [8] = assay: Induction of apoptosis in human A549 cells assessed as condensed chromatin at 100 to 800 ug/ml after 24 hrs by Hoechst 33258 staining-based fluorescence microscopic analysis; format: functional, cell-based
A549 [9] = assay: Induction of apoptosis in human A549 cells assessed as nuclear fragmentation at 100 to 800 ug/ml after 24 hrs by Hoechst 33258 staining-based fluorescence microscopic analysis; format: functional, cell-based
A549 [10] = assay: Induction of apoptosis in human A549 cells after 24 hrs by inverted phase contrast microscopic analysis; format: functional, cell-based
A549 [11] = assay: Upregulation of phosphorylated p38 expression in human A549 cells by Western blot analysis; format: functional, cell-based
A549 [12] = assay: Upregulation of p38 expression in human A549 cells by Western blot analysis; format: functional, cell-based
[13] = target: T1, MAP kinase p38 (Homo sapiens) (UniProt O15264+Q15759+Q16539+P53778); assay: Activation of p38 in human A549 cells assessed as upregulation of DR5 expression by Western blot analysis; format: cell-based
[14] = target: T1, MAP kinase p38 (Homo sapiens); assay: Activation of p38 in human A549 cells assessed as upregulation of TNF-R1 expression by Western blot analysis; format: cell-based
A549 [15] = assay: Induction of apoptosis in human A549 cells assessed as loss in mitochondrial membrane potential after 24 hrs by JC-1 dye-based fluorescence microscopic analysis; format: functional, cell-based
[16] = target: T1, MAP kinase p38 (Homo sapiens); assay: Activation of p38 in human A549 cells assessed as upregulation of Bax expression by Western blot analysis; format: cell-based
[17] = target: T1, MAP kinase p38 (Homo sapiens); assay: Activation of p38 in human A549 cells assessed as downregulation of Bcl2 expression at 100 to 800 ug/ml by Western blot analysis; format: cell-based
[18] = target: T1, MAP kinase p38 (Homo sapiens); assay: Activation of p38 in human A549 cells assessed as increase in Bax to Bcl2 ratio by Western blot analysis; format: cell-based
[19] = target: T1, MAP kinase p38 (Homo sapiens); assay: Activation of p38 in human A549 cells assessed as downregulation of cytochrome c expression in mitochondria by Western blot analysis
[20] = target: T1, MAP kinase p38 (Homo sapiens); assay: Activation of p38 in human A549 cells assessed as upregulation of cytochrome c expression in cytosol by Western blot analysis; format: cell-based
[21] = target: T1, MAP kinase p38 (Homo sapiens); assay: Activation of p38 in human A549 cells assessed as downregulation of procaspase-8 level by Western blot analysis; format: cell-based
[22] = target: T1, MAP kinase p38 (Homo sapiens); assay: Activation of p38 in human A549 cells assessed as downregulation of procaspase-3 level by Western blot analysis; format: cell-based
[23] = target: T1, MAP kinase p38 (Homo sapiens); assay: Activation of p38 in human A549 cells assessed as upregulation of cleaved caspase-9 level by Western blot analysis; format: cell-based

CCN1C[C@]2(COC)[C@H](O)C[C@@H](OC)[C@@]34[C@@H]5C[C@@]6(O)[C@H](OC(=O)c7ccccc7)[C@@H]5[C@@](OC(C)=O)([C@@H]([C@H](OC)[C@H]23)[C@H]14)[C@@H](O)[C@@H]6OC
Activity (HepG2): Active
Activity (A549 [1]): Active
Activity (HeLa): Active
Activity [2]: Non-toxic
Activity [3]: Toxic
Activity (A549 [4]): Active
Activity (A549 [5]): Active
Activity (A549 [6]): Active
Activity (A549 [7]): Active
Activity (A549 [8]): Active
Activity (A549 [9]): Active
Activity (A549 [10]): Dose-dependent effect
Activity (A549 [11]): Dose-dependent effect
Activity (A549 [12]): Dose-dependent effect
Activity [13]: Dose-dependent effect
Activity [14]: Dose-dependent effect
Activity (A549 [15]): Dose-dependent effect
Activity [16]: Dose-dependent effect
Activity [17]: Active
Activity [18]: Dose-dependent effect
Activity [19]: Dose-dependent effect
Activity [20]: Dose-dependent effect
Activity [21]: Dose-dependent effect
Activity [22]: Dose-dependent effect
Activity [23]: Active

CCN1C[C@@]2(COC)[C@H]3[C@@H](OC)[C@H]4C1[C@]3([C@@H](OC)C[C@H]2OC(C)=O)[C@@H]1C[C@@]2(O)[C@H](OC(=O)c3ccccc3)[C@@H]1[C@]4(OC(C)=O)[C@@H](O)[C@@H]2OC
Activity (HepG2): Active
Activity (A549 [1]): Active
Activity (HeLa): Active
Activity [2]: Non-toxic
Activity [3]: Toxic
Activity (A549 [4]): Active
Activity (A549 [5]): Active
Activity (A549 [6]): Active
Activity (A549 [7]): Active
Activity (A549 [8]): Active
Activity (A549 [9]): Active
Activity (A549 [10]): Dose-dependent effect
Activity (A549 [11]): Dose-dependent effect
Activity (A549 [12]): Dose-dependent effect
Activity [13]: Dose-dependent effect
Activity [14]: Dose-dependent effect
Activity (A549 [15]): Dose-dependent effect
Activity [16]: Dose-dependent effect
Activity [17]: Active
Activity [18]: Dose-dependent effect
Activity [19]: Dose-dependent effect
Activity [20]: Dose-dependent effect
Activity [21]: Dose-dependent effect
Activity [22]: Dose-dependent effect
Activity [23]: Active

CCN1C[C@]2(COC)CC[C@H](OC)[C@]34C1[C@H]([C@H](OC)[C@H]23)[C@]1(OC(C)=O)[C@H]2[C@@H](OC(=O)c3ccccc3)[C@](O)(C[C@H]24)[C@@H](OC)[C@@H]1O
Activity (HepG2): Active
Activity (A549 [1]): Active
Activity (HeLa): Active
Activity [2]: Non-toxic
Activity [3]: Toxic
Activity (A549 [4]): Active
Activity (A549 [5]): Active
Activity (A549 [6]): Active
Activity (A549 [7]): Active
Activity (A549 [8]): Active
Activity (A549 [9]): Active
Activity (A549 [10]): Dose-dependent effect
Activity (A549 [11]): Dose-dependent effect
Activity (A549 [12]): Dose-dependent effect
Activity [13]: Dose-dependent effect
Activity [14]: Dose-dependent effect
Activity (A549 [15]): Dose-dependent effect
Activity [16]: Dose-dependent effect
Activity [17]: Active
Activity [18]: Dose-dependent effect
Activity [19]: Dose-dependent effect
Activity [20]: Dose-dependent effect
Activity [21]: Dose-dependent effect
Activity [22]: Dose-dependent effect
Activity [23]: Active

C=C1[C@H]2C[C@@]3([C@@H]1O)[C@@H](CC2=O)[C@@]12C4[C@@H]3C[C@@H]1[C@@](C)(CC[C@@H]2O)CN4CC
Activity (HepG2): Active
Activity (A549 [1]): Active
Activity (HeLa): Active
Activity [2]: Non-toxic
Activity [3]: Toxic
Activity (A549 [4]): Active
Activity (A549 [5]): Active
Activity (A549 [6]): Active
Activity (A549 [7]): Active
Activity (A549 [8]): Active
Activity (A549 [9]): Active
Activity (A549 [10]): Dose-dependent effect
Activity (A549 [11]): Dose-dependent effect
Activity (A549 [12]): Dose-dependent effect
Activity [13]: Dose-dependent effect
Activity [14]: Dose-dependent effect
Activity (A549 [15]): Dose-dependent effect
Activity [16]: Dose-dependent effect
Activity [17]: Active
Activity [18]: Dose-dependent effect
Activity [19]: Dose-dependent effect
Activity [20]: Dose-dependent effect
Activity [21]: Dose-dependent effect
Activity [22]: Dose-dependent effect
Activity [23]: Active
